Test results published in patent US11549123B2, “Plant EPSP synthases and methods of use” (PIONEER HI-BRED INTERNATIONAL, INC., priority 2015, dated 2023).
Substitutions are numbered along the chain they refer to.

Experiments:
Type in all cases: biochemical
[1] = molecular target: T1, Zea mays EPSPS variant Zm-H6 (868-H6) with V87T (H6-V87T) (Zea mays, UniProt O24566, A1R/A3W/A415G/A71Q/D401G/E301S/E390G/G101A/I207L/K83R/L97C/T278A/T360S/T440Q/V437R/V86T); assay: Rapid two-rate method for (kcat/KM)*KI, H6-V87T; settings: [E] 0.07 uM, [Gly] 1000 uM
T1 construct: 868-H6 plus V87T; E. coli BL21(DE3), Ni-NTA purified
T1 sequence (O24566 with tags, fused parts or gaps A1R/A3W/A71Q/K83R/V86T/L97C/G101A/I207L/T278A/E301S/T360S/E390G/D401G/A415G/V437R/T440Q): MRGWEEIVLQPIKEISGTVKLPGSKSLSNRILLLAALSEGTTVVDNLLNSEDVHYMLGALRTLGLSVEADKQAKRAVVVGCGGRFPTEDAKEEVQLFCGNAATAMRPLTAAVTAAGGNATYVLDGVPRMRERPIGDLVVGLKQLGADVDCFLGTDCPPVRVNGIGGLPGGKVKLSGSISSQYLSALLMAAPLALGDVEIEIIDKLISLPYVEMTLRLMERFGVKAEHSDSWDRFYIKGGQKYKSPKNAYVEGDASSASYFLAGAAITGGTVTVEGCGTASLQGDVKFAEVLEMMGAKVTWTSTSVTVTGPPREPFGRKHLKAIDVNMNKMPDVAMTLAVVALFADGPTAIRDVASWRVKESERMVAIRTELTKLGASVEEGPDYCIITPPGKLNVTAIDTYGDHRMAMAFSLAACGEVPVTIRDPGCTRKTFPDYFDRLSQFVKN
Excerpt: (§1) There are several practical considerations for accurately estimating (kcat/KM)*KI with the rapid method. […] 2) The inhibitor concentration must be adjusted so as to obtain a degree of inhibition that minimally amplifies the error in the term v0-vi in Equation 3. If inhibition is too little, v0-vi will be small, and the error in the multiplier vi×v0/(v0-vi) will be large. […] 3) Substrate concentration should be set at the approximate KM of the parental variant(s), subject to the sensitivity of the assay. High substrate concentration obscures sensitivity to the inhibitor and reduces stringency for capturing improvements in KM. Depending on the necessity for speed, there exists opportunity for customizing enzyme and inhibitor concentrations. […] The rapid method was repeated for those and obtained data that correlated better with data obtained by substrate saturation analysis. For screening purposes however, that correlation step is not necessary. Conditions can be set so that variants with a pre-determined minimal fitness level are accurately quantified.
(§2) In Table 15, parameters above the heavy line for the rapid method were obtained under standard conditions. For variants shown below the heavy line, the rapid analysis was repeated with enzyme or glyphosate concentrations adjusted as needed to generate sufficient signal within the limits for linear initial rates.

[2] = molecular target: T2, Zea mays EPSPS variant Zm-P107L (Zea mays, UniProt O24566, P106L); assay: Rapid two-rate method for (kcat/KM)*KI, Zm-P107L
T2 construct: native maize plus P107L; E. coli BL21(DE3), Ni-NTA purified
Excerpt: as §1, §2

[3] = molecular target: T3, Zea mays EPSPS variant Zm-H6 (868-H6) with D196V (H6-D196V) (Zea mays, UniProt O24566, A1R/A3W/A415G/A71Q/D195V/D401G/E301S/E390G/G101A/I207L/K83R/L97C/T278A/T360S/T440Q/V437R); assay: Rapid two-rate method for (kcat/KM)*KI, H6-D196V; settings: [E] 0.07 uM, [Gly] 1000 uM
T3 construct: shuffled variant 868-H6 plus D196V; E. coli BL21(DE3), Ni-NTA purified
T3 sequence (O24566 with tags, fused parts or gaps A1R/A3W/A71Q/K83R/L97C/G101A/D195V/I207L/T278A/E301S/T360S/E390G/D401G/A415G/V437R/T440Q): T1 sequence (O24566 with tags, fused parts or gaps A1R/A3W/A71Q/K83R/V86T/L97C/G101A/I207L/T278A/E301S/T360S/E390G/D401G/A415G/V437R/T440Q) with T87V, D196V
Excerpt: as §1, §2

[4] = molecular target: T4, Zea mays EPSPS variant Zm-H6 (868-H6) with A69V (H6-A69V) (Zea mays, UniProt O24566, A1R/A3W/A415G/A68V/A71Q/D401G/E301S/E390G/G101A/I207L/K83R/L97C/T278A/T360S/T440Q/V437R); assay: Substrate saturation kinetic analysis with glyphosate, H6-A69V
T4 sequence (O24566 with tags, fused parts or gaps A1R/A3W/A68V/A71Q/K83R/L97C/G101A/I207L/T278A/E301S/T360S/E390G/D401G/A415G/V437R/T440Q): T1 sequence (O24566 with tags, fused parts or gaps A1R/A3W/A71Q/K83R/V86T/L97C/G101A/I207L/T278A/E301S/T360S/E390G/D401G/A415G/V437R/T440Q) with A69V, T87V

T2 sequence (O24566 entry or part of it P106L): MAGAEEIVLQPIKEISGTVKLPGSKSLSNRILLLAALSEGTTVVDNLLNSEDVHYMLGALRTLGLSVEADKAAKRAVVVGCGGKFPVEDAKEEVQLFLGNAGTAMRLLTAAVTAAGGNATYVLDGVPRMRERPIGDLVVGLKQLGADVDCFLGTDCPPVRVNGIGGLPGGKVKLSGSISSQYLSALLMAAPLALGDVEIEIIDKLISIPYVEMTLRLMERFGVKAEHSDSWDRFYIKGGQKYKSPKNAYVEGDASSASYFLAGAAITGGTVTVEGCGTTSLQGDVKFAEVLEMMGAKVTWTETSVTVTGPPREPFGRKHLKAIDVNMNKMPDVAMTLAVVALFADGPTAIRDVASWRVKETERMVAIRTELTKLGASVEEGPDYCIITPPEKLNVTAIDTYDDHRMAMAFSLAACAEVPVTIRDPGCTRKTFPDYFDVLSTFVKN

For `O=C(O)CNCP(=O)(O)O` [glyphosate, N-phosphonomethylglycine], the “(kcat/KM)*KI” value [1] was 3190, the “(kcat/KM)*KI” value ([2]; rapid method repeated, [E] 0.014 uM, [Gly] 10 uM) was 91 and the “(kcat/KM)*KI” value ([2]; rapid method, [E] 0.07 uM, [Gly] 1000 uM) was 111. For the same compound, the “(kcat/KM)*KI” value [3] was 1704, the Ki [4] was 320 µM and the “(kcat/KM)*KI” value ([4]; substrate saturation, H6-A69V) was 2440.
